Data on 1 molecule can be found in ChEMBL document CHEMBL3864133, “Discovery of a Potent and Selective in Vivo Probe (GNE-272) for the Bromodomains of CBP/EP300” (J Med Chem, 2016).

Series [1] can be described thus: Antitumor activity against human MOLM16 cells xenografted in SCID beige mouse assessed as tumor growth inhibition at 25 mg/kg, po BID administered through gavage for 21 days. Format: functional. As to conditions: read-out: TGI. (In general: Xenograft models place foreign cells or tissue in a host animal.)
In another series the target is Cytochrome P450 2C19 (Homo sapiens, UniProt P33261). The series is described as follows: Inhibition of CYP2C19 in human liver microsomes assessed as formation of 4-hydroxymephenytoin from mephenytoin measured after 40 mins in presence of NADPH by LC-MS/MS analysis. Format: ADME. (Liver microsomes are a subcellular fraction often used to study metabolism.)
A further series relates to Kasumi 1. Description: Antiproliferative activity against human Kasumi-1 cells measured after 6 days by CellTiter-Glo assay. Type of series: functional, cell-based. Background: Cellular ATP, detected with luciferase, serves as a proxy for viable cell number.
Series [2] deals with T1, CREB-binding protein/Histone acetyltransferase p300 (Homo sapiens, UniProt Q09472+Q92793). Description: Inhibition of CBP/EP300 in human MOLM16 cells assessed as suppression of MCL1 expression at 5 uM measured after 4 hrs by RT-PCR analysis relative to DMSO control. Type of series: cell-based.
T1 sequence (Q09472 whole entry, looked up): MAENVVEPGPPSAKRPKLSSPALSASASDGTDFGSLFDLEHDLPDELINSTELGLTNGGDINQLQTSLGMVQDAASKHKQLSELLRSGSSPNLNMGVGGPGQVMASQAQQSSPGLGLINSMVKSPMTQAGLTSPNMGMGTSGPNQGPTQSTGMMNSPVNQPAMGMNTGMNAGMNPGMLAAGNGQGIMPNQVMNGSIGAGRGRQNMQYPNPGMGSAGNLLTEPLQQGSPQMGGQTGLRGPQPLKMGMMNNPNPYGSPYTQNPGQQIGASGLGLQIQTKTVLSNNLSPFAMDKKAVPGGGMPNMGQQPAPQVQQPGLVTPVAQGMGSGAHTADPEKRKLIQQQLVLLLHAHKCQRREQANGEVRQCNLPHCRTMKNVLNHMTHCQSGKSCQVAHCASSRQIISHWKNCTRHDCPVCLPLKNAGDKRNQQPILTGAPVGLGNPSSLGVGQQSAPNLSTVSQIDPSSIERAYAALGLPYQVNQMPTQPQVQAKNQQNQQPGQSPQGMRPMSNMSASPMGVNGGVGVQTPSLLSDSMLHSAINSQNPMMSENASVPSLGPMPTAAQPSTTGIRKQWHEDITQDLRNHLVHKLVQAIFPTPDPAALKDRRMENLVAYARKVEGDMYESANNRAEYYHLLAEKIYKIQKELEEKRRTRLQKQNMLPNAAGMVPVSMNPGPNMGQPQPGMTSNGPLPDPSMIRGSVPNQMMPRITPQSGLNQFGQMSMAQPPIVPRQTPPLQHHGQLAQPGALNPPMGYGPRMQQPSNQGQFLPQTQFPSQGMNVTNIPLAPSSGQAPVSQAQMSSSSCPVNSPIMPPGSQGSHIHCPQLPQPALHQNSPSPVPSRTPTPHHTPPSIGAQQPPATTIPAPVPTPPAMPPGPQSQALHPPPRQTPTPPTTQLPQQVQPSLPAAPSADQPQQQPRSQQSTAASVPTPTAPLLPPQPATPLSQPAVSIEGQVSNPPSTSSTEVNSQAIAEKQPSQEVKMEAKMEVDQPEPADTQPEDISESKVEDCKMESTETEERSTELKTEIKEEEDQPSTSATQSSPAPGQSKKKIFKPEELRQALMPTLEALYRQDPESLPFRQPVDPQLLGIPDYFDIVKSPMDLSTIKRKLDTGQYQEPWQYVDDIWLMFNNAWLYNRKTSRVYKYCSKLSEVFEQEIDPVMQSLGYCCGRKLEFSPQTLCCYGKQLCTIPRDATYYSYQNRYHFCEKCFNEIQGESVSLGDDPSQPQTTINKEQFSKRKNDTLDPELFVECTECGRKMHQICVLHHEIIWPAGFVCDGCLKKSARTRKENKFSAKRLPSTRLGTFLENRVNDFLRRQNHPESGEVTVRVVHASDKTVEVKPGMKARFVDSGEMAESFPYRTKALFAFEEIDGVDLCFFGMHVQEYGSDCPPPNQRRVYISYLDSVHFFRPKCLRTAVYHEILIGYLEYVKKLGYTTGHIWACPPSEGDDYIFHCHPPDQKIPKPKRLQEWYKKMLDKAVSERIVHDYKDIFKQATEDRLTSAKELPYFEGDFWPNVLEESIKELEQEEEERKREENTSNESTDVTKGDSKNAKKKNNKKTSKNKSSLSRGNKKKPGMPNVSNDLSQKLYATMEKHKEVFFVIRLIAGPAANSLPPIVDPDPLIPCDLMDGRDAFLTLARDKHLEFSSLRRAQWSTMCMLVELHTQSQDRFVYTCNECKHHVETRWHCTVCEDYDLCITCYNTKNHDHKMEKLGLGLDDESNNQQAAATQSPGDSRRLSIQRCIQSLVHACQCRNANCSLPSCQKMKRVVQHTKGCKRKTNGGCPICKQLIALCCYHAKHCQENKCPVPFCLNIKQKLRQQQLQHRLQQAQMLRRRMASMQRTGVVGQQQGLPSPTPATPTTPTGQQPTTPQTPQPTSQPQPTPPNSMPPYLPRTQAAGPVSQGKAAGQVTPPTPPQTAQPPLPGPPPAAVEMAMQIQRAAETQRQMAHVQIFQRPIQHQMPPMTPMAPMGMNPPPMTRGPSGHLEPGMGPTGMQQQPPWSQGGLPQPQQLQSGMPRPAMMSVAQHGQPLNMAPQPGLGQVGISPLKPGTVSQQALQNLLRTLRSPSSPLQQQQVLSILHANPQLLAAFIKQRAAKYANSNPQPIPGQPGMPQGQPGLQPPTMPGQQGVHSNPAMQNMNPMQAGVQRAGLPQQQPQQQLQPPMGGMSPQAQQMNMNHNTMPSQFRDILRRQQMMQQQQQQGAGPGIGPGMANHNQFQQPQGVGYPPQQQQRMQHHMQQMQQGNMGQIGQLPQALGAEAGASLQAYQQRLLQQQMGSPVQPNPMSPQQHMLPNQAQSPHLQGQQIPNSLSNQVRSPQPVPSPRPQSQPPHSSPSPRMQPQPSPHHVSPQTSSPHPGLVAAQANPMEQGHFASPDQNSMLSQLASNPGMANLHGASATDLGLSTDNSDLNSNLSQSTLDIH
T1 sequence (Q92793 whole entry, looked up): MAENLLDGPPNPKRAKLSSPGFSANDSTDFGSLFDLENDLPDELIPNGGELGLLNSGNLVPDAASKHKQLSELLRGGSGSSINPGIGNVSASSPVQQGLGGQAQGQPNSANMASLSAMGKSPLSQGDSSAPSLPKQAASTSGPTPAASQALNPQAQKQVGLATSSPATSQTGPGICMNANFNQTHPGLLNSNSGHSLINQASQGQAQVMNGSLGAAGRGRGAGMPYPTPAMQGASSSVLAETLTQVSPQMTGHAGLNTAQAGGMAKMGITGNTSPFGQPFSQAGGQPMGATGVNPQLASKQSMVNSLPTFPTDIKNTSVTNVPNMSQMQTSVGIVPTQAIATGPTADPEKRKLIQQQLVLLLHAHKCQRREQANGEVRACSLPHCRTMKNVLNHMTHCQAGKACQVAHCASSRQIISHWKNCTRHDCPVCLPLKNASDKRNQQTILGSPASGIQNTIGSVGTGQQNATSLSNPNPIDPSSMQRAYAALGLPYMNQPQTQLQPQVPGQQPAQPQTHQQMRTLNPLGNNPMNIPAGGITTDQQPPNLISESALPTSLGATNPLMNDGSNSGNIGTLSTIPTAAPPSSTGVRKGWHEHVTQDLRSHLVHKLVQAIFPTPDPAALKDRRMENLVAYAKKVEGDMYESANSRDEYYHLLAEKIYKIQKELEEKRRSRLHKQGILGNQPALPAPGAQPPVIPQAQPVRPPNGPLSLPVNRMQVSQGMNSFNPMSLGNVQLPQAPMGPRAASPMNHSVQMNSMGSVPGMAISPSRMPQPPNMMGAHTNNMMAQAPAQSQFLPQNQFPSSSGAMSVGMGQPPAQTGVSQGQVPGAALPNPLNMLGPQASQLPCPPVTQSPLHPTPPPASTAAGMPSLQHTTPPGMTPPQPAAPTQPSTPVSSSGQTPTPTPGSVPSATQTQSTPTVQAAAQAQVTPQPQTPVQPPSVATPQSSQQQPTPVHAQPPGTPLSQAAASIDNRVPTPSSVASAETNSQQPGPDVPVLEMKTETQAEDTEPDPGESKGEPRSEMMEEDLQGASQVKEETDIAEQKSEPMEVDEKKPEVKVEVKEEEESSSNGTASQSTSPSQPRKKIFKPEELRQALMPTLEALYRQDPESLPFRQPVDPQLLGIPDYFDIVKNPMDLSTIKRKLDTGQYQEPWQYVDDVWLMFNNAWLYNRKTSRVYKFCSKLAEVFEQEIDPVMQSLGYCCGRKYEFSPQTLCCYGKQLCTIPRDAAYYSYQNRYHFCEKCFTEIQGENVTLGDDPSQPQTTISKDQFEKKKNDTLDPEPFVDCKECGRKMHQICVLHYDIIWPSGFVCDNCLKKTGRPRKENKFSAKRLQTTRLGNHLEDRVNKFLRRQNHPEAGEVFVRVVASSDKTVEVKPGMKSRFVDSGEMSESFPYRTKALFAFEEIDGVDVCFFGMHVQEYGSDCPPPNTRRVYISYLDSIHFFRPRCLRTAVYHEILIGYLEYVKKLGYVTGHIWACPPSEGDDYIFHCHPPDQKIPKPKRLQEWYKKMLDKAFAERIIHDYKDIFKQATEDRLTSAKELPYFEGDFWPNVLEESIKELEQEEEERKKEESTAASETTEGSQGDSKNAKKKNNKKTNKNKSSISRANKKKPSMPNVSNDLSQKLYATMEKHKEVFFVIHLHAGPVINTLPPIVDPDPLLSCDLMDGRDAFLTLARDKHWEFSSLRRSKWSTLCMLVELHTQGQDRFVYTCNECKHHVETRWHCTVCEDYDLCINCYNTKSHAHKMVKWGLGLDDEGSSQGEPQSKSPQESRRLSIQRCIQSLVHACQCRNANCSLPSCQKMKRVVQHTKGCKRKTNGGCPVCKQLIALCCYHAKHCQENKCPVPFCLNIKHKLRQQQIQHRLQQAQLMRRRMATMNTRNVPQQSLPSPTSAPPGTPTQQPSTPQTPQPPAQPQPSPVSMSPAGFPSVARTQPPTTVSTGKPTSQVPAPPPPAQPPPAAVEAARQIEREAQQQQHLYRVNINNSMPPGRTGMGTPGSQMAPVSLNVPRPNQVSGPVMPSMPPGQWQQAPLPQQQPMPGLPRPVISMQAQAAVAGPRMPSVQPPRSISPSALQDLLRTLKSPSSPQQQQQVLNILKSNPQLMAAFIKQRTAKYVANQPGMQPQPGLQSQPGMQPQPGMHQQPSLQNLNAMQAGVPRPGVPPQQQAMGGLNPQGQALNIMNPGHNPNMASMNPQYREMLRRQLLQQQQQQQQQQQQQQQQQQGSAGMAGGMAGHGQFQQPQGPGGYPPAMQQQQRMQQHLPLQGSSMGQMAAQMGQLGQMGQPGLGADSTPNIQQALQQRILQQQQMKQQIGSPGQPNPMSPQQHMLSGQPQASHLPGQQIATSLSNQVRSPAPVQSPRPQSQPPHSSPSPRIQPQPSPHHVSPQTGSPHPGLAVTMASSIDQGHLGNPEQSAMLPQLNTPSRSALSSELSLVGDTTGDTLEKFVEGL
Series [3] deals with T1, CREB-binding protein/Histone acetyltransferase p300. Description: Inhibition of CBP/EP300 in human MOLM16 cells assessed as suppression of BCL-XL expression at 5 uM measured after 4 hrs by RT-PCR analysis relative to DMSO control. Format: cell-based.
A further series relates to U-266. The series is described as follows: Antiproliferative activity against human U266B1 cells measured after 6 days by CellTiter-Glo assay. Format: functional, cell-based.
Series [4] is described as follows: Time at which unbound drug level in SCID beige mouse tumor stays above cellular MYC EC90 at 10 mg/kg, po administered twice daily via gavage as single dose. Format: ADME, organism-based. The following applies: in vivo.
Series [5] is described as follows: Cmax in nu/nu mouse at 100 mg/kg, po by LC-MS/MS analysis. Type of series: ADME, organism-based. The arrangement: dose 100 mg/kg, route oral. The following applies: in vivo.
Series [6] deals with T1, CREB-binding protein/Histone acetyltransferase p300. Description: Inhibition of CBP/EP300 in human Pfeiffer cells assessed as decrease in MYC expression at 5 uM measured after 4 hrs by RT-PCR analysis relative to DMSO control. Format: cell-based.
Series [7] has the same target. The series is described as follows: Inhibition of CBP/EP300 in human MOLM16 cells assessed as decrease in MYC expression at 0.1 to 1 uM measured after 4 hrs Western blot analysis. Type of series: cell-based.
The nature of series [8]: Clearance in nu/nu mouse at 1 mg/kg, iv by LC-MS/MS analysis. Format: ADME, organism-based. The following applies: in vivo.
Series [9] is described as follows: Apparent permeability of the compound across apical side to basolateral side in MDCK cells at 10 uM measured after 180 mins by LC-MS/MS analysis. Type of series: ADME, cell-based, Canis lupus familiaris. As to conditions: dog.

A word on the Cmax: it is the maximum level reached in the sampled fluid or tissue. Usually clearance stands for a measure of how efficiently the substance is removed, as volume per time. What is called Papp A→B is how fast a substance crosses the layer from the apical side.

Calls of active or inactive are those of the source. No cut-off for these calls is given here.

Consider `CC(=O)N1CCc2c(c(Nc3ccc(-c4cnn(C)c4)cc3F)nn2[C@@H]2CCOC2)C1`, for which, in [1], the inhibition in vivo at 25 mg/kg came out at 65%. In addition, the INH on Cytochrome P450 2C19 was above 10 µM. Further, the result in the series with Kasumi 1 and in the series on U-266 was Active. Besides, the inhibition entry in series [2], in series [3], in series [6] and in series [7] was “Active” each time. For the same molecule, the Time in series [4] was determined as 24 h. This molecule came in with a Cmax in series [5] of 163 µM. The clearance in series [8] was determined as 9.6 mL/min/kg. In addition, the apparent permeability from apical to basolateral (Papp A→B) at 3 h, 10 µM in series [9] stood at 15 ×10⁻⁶ cm/s.
